The text below walks through data of US20240383856A1 (Zedira GmbH, priority 2021, published 2024).

Data set [1] is described as follows: Caco-2 permeability assay (CacoReady kit). It is filed as in vitro ADME. Conditions: human, Caco-2, Caco-2 barrier, CacoReady kit; above 1×10^−6 cm/s classified as permeable. On the procedure: Permeability coefficients (Papp values) were obtained from Caco-2 barrier studies predicting oral/intestinal bioavailability of the tested compounds. The assays were performed by using CacoReady™ ready-to-use kits from ReadyCell according to the manufacturers protocol.

The target of data set [2] is T1, recombinant human transglutaminase 2 (Homo sapiens, UniProt P21980).
T1 construct: purchased Zedira T022
T1 sequence (P21980 1-687): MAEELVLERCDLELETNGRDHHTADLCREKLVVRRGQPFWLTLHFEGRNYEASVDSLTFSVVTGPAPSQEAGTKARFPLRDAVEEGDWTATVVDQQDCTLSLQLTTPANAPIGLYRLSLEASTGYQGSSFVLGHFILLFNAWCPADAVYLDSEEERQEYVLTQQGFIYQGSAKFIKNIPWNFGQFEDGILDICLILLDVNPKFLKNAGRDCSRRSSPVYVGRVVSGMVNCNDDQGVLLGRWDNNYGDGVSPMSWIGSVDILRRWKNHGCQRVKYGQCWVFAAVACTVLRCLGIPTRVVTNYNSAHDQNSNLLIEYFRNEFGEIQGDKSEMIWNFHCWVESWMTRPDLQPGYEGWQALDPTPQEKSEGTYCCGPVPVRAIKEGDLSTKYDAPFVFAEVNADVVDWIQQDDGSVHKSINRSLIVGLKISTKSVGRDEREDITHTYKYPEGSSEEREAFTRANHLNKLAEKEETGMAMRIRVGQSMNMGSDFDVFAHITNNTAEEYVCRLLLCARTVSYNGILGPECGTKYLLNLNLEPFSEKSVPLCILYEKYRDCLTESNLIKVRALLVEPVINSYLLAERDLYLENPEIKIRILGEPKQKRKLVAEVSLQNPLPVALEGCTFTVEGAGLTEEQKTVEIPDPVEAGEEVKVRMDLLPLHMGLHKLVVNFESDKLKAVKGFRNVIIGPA
Kind of data set: Transglutaminase assay (DCC-assay): incorporation of dansylcadaverine into dimethylcasein. It is filed as biochemical. Conditions: recombinant human TG2 10 nM; dansylcadaverine incorporation into dimethylcasein; read-out: IC50 TG2. As to the method:
To illustrate the advantage of branched alkyl moieties over aromatic moieties, we refer to reference compounds Ref. 2 (ZED1227, U.S. Pat. No. 9,434,763 B2) and Ref. 3 (A8, ZED1047). Inhibition data were determined using the classical fluorescent transamidation assay (dansylcadaverine incorporation into methylated casein, DCC-assay) as described [Buchold, C.; Hils, M.; Gerlach, U.; Weber, J.; Pelzer, C.; Heil, A.; Aeschlimann, D.; Pasternack, R. Features of ZED1227: The First-In-Class Tissue Transglutaminase Inhibitor Undergoing Clinical Evaluation for the Treatment of Celiac Disease. Cells 2022, 11, 1667. https://doi.org/10.3390/cells11101667]. Casein is one of the best known high molecular weight (24 kDa) protein substrates for transglutaminases. Please note, the IC50 value of Ref. 3 (A8) published in U.S. Pat. No. 9,434,763 B2 cannot be compared to the present data, relying on a fluorogenic isopeptidase assay.
To this extent, inhibition data were determined using the classical fluorescent transamidation assay (dansylcadaverine incorporation into methylated casein, DCC-assay) as described in Büchold et al. [Büchold, C.; Hils, M.; Gerlach, U.; Weber, J.; Pelzer, C.; Heil, A.; Aeschlimann, D.; Pasternack, R. Features of ZED1227: The First-In-Class Tissue Transglutaminase Inhibitor Undergoing Clinical Evaluation for the Treatment of Celiac Disease. Cells 2022, 11, 1667. https://doi.org/10.3390/cells11101667]. Casein is one of the best known high molecular weight (24 kDa) protein substrates for transglutaminases. Inhibition data of the inventive compounds was compared with inhibition of compounds disclosed in U.S. Pat. No. 9,434,763 B2, particularly, compound A8, which is denoted herein as Reference 3. It is noteworthy that the IC50 values of compounds A8 published in U.S. Pat. No. 9,434,763 B2 and E16 from U.S. Pat. No. 11,072,634 B2 cannot be compared to the present data, relying on a fluorogenic isopeptidase assay.
For the determination of potency of inhibitors against tissue transglutaminase, the incorporation of dansylcadaverine into dimethylcasein (Zedira product T036, Lorand et al., Anal Biochem, 1971, 44:221-31) was measured using recombinant human transglutaminase 2 (Zedira Product T022).
The tissue transglutaminase is diluted in buffer (50 mM Tris-HCl, 7.5 mM CaCl2), 150 mM NaCl, pH=7.4). The final concentration of TG2 in the assay is 10 nM.
A 10 mM inhibitor stock solution is prepared in DMSO, and from this a serial 1:2-fold dilution series is prepared also in DMSO. Each of the initial dilutions is subsequently diluted 1:50-fold with buffer (50 mM Tris-HCl, 7.5 mM CaCl2), 150 mM NaCl, pH=7.4) to yield the final working dilutions containing 2% (v/v) DMSO.
15 μl of inhibitor working dilution are added per well of a 96 well microtiter plate. As control, 15 μl of a 2% (v/v) DMSO solution prepared using the buffer mentioned above are added per well.
Immediately before starting the assay, 600 μl transglutaminase working solution are added to 11.4 ml assay buffer (50 mM Tris-HCl, 10 mM CaCl2), 10 mM glutathione, 2.5% glycerol, 16.7 µM dansylcadaverine, 4 uM N,N-dimethylcasein, 200 mM NaCl, pH=8.0). 285 μl of this reaction mix are added per well containing the inhibitor.
Increase in fluorescence is measured using λex=330 nm and λem=500 nm at 37° C. for 30 min. A slope of the increase in fluorescence between 20 and 30 min is calculated for determination of the IC50 value (inhibitor concentration at which 50% of the initial activity is blocked).
Analysis of enzymatic activity is performed by calculation of the slope of an increase in fluorescence intensity. IC50 values are calculated by plotting the enzymatic activity (as percentage from control containing 2% DMSO instead of inhibitor) against the inhibitor concentration. IC50 is defined as the inhibitor concentration blocking 50% of initial enzyme activity.

Data set [3] is described as follows: logD by shake flask method (octanol / PBS pH 7.4, HPLC). Format: physicochemical. Conditions: octanol / PBS pH 7.4, shake flask. As to the method: In order to classify the inventive compounds according to their lipophilicity, LogD values (distribution coefficient) were determined by means of the well-established shake flask method, measuring the partition of a compound between an octanol and phosphate-buffered saline (PBS, pH 7.4) by HPLC.
The LogD is pH dependent and is a “predictor” for in-vivo properties. LogD combines lipophilicity (intrinsic structural property of the molecule, logP) and ionizability (pKa). Compounds with a moderate lipophilicity (LogD values from 0 to 3) are usually advantaged for oral absorption, being in balance between solubility and permeability. However, sophisticated formulation of a compound might improve oral bioavailability for highly lipophilic compounds.

Molecules are shown by their SMILES.

Take `CNC(=O)C(=O)CC[C@H](NC(=O)c1sc(Br)nc1C)C(=O)Nc1cccn(CC(=O)NC2C3CC4CC(C3)CC2C4)c1=O` (stereo partly drawn) [II-14, (S)--(2-bromo-4-methylthiazole-5-carboxamido)-N1-(1-(2-(2-adamantylamino)-2-oxoethyl)-2-oxo-1,2-dihydropyridin-3-yl)-N6-methyl-5-oxohexanediamide]: in data set [1], the apparent permeability coefficient (Papp) is 1 to 10 ×10⁻⁶ cm/s. Moreover, in data set [2], the half-inhibitory concentration (IC50) is less than 40 nM. The logD in data set [3] lay within 1 to 3.
Taken in the same sequence, the figures for `CNC(=O)C(=O)CC[C@H](NC(=O)c1sc(C(F)(F)F)nc1Br)C(=O)Nc1cccn(CC(=O)NC2C3CC4CC(C3)CC2C4)c1=O` (stereo partly drawn) [II-16, (S)-2-(4-bromo-2-(trifluoromethyl)thiazole-5-carboxamido)-N1-(1-(2-(2-adamantylamino)-2-oxoethyl)-2-oxo-1,2-dihydropyridin-3-yl)-N6-methyl-5-oxohexanediamide] were 1 to 10 ×10⁻⁶ cm/s, less than 40 nM and 1 to 3.
Taken in the same sequence, the figures for `CNC(=O)C(=O)CC[C@H](NC(=O)c1sc(Cl)nc1Cl)C(=O)Nc1cccn(CC(=O)NC2C3CC4CC(C3)CC2C4)c1=O` (stereo partly drawn) [II-17, (S)-2-(2,4-dichlorothiazole-5-carboxamido)-N1-(1-(2-(2-adamantylamino)-2-oxoethyl)-2-oxo-1,2-dihydropyridin-3-yl)-N6-methyl-5-oxohexanediamide] were 1 to 10 ×10⁻⁶ cm/s, 40 to 400 nM and 1 to 3.
Taken in the same sequence, the figures for `CNC(=O)C(=O)CC[C@H](NC(=O)c1sc(OC)nc1C)C(=O)Nc1cccn(CC(=O)NC2C3CC4CC(C3)CC2C4)c1=O` (stereo partly drawn) [II-18, (S)-N1-(1-(2-(2-adamantylamino)-2-oxoethyl)-2-oxo-1,2-dihydropyridin-3-yl)-2-(2-methoxy-4-methylthiazole-5-carboxamido)-N6-methyl-5-oxohexanediamide] were less than 1 ×10⁻⁶ cm/s, 40 to 400 nM and 1 to 3.
For `CNC(=O)C(=O)CC[C@H](NC(=O)c1sc(-c2ccccc2)nc1C)C(=O)Nc1cccn(CC(=O)NC2C3CC4CC(C3)CC2C4)c1=O` (stereo partly drawn) [II-19, (S)-N1-(1-(2-(2-adamantylamino)-2-oxoethyl)-2-oxo-1,2-dihydropyridin-3-yl)-N6-methyl-2-(4-methyl-2-phenylthiazole-5-carboxamido)-5-oxohexanediamide], the Papp in data set [1] was less than 1 ×10⁻⁶ cm/s. Moreover, in data set [2], the IC50 is 40 to 400 nM. Also, the logD in data set [3] lay within 3 to 5.
Taken in the same sequence, the figures for `CNC(=O)C(=O)CC[C@H](NC(=O)c1sc(C)nc1C)C(=O)Nc1cccn(CC(=O)NC2C3CC4CC(C3)CC2C4)c1=O` (stereo partly drawn) [II-20, (S)-2-(2,4-dimethylthiazole-5-carboxamido)-N1-(1-(2-(2-adamantylamino)-2-oxoethyl)-2-oxo-1,2-dihydropyridin-3-yl)-N6-methyl-5-oxohexanediamide] were 1 to 10 ×10⁻⁶ cm/s, 400 to 2500 nM and 1 to 3.
Taken in the same sequence, the figures for `CNC(=O)C(=O)CC[C@H](NC(=O)c1sc(Br)cc1C)C(=O)Nc1cccn(CC(=O)NC2C3CC4CC(C3)CC2C4)c1=O` (stereo partly drawn) [II-21, (S)-2-(5-bromo-3-methylthiophene-2-carboxamido)-N1-(1-(2-(2-adamantylamino)-2-oxoethyl)-2-oxo-1,2-dihydropyridin-3-yl)-N6-methyl-5-oxohexanediamide] were 1 to 10 ×10⁻⁶ cm/s, less than 40 nM and 3 to 5.
Taken in the same sequence, the figures for `CNC(=O)C(=O)CC[C@H](NC(=O)c1sc(Br)cc1Br)C(=O)Nc1cccn(CC(=O)NC2C3CC4CC(C3)CC2C4)c1=O` (stereo partly drawn) [II-22, (S)-2-(3,5-dibromothiophene-2-carboxamido)-N1-(1-(2-(2-adamantylamino)-2-oxoethyl)-2-oxo-1,2-dihydropyridin-3-yl)-N6-methyl-5-oxohexanediamide] were 1 to 10 ×10⁻⁶ cm/s, less than 40 nM and 3 to 5.
`CNC(=O)C(=O)CC[C@H](NC(=O)c1ccc(Br)s1)C(=O)Nc1cccn(CC(=O)NC2C3CC4CC(C3)CC2C4)c1=O` (stereo partly drawn) [II-23, (S)-2-(5-bromothiophene-2-carboxamido)-N1-(1-(2-(2-adamantylamino)-2-oxoethyl)-2-oxo-1,2-dihydropyridin-3-yl)-N6-methyl-5-oxohexanediamide] yielded a Papp in data set [1] of 1 to 10 ×10⁻⁶ cm/s. Besides, the concentration for half-maximal inhibition (IC50) in data set [2] was in the range of 40 to 400 nM. This compound also showed a pH-dependent lipophilicity (logD) in data set [3] of 3 to 5.
Compound `CNC(=O)C(=O)CC[C@H](NC(=O)c1ccc(Cl)s1)C(=O)Nc1cccn(CC(=O)NC2C3CC4CC(C3)CC2C4)c1=O` (stereo partly drawn) [II-24, (S)-2-(5-chlorothiophene-2-carboxamido)-N1-(1-(2-(2-adamantylamino)-2-oxoethyl)-2-oxo-1,2-dihydropyridin-3-yl)-N6-methyl-5-oxohexanediamide] yielded a Papp in data set [1] of 1 to 10 ×10⁻⁶ cm/s. Further, the IC50 in data set [2] lay in the range of 40 to 400 nM. For the same compound, in data set [3], the logD lay within 1 to 3.
Taken in the same sequence, the figures for `CNC(=O)C(=O)CC[C@H](NC(=O)c1oc(Br)cc1C)C(=O)Nc1cccn(CC(=O)NC2C3CC4CC(C3)CC2C4)c1=O` (stereo partly drawn) [II-25, (S)-2-(5-bromo-3-methylfuran-2-carboxamido)-N1-(1-(2-(2-adamantylamino)-2-oxoethyl)-2-oxo-1,2-dihydropyridin-3-yl)-N6-methyl-5-oxohexanediamide] were 1 to 10 ×10⁻⁶ cm/s, 40 to 400 nM and 1 to 3.
